Assays:
[1] = test system: Malme-3M melanoma cancer cells; experiment: Curcumin cell inhibition, MTS assay after 72 hrs; type: cell-based, human
Experimental: The curcumin nanoemulsion was prepared by combining gelatin and EMG-20 or gelatin and Solutol® HS15 in a 1:1 weight ratio. The cell inhibition activity of the blank nanoemulsion, a 30 micromolar DMSO-curcumin mixture, a 0.030 micromolar DMSO-curcumin mixture, and a 0.03 micromolar curcumin nanoemulsion were contacted with melanoma cancer cell lines.

[2] = Electrokinetic potential (zeta potential); type: physicochemical; details: at 10 mv
Experimental: The electrokinetic potential (“Zeta-potential”) of the curcumin nanoemulsion was measured (FIG. 10A) and compared to the corresponding electrokinetic potential for curcumin in water (FIG. 10B). The zeta potential of a colloidal system corresponds to the electric potential in the interfacial double layer (DL) at the location of the slipping plane versus a point in the bulk fluid away from the interface (i.e., the potential difference between the dispersion medium and the stationary layer of fluid attached to the dispersed particle). For small particles (e.g., nanoemulsions) a higher zeta potential corresponds to greater stability of a colloidal dispersion, representing a greater degree of repulsion between adjacent particles in the dispersion to resist particle/droplet aggregation. A zeta potential of −23.5 (wall zeta potential of −50.3) was measured for the curcumin nanoemulsion (FIG. 10A), compared to a zeta wall potential at 10 mv of −2.53 for curcumin in water (FIG. 10B).

[3] = test system: melanoma cancer cells (Malme-3M); experiment: 5-FU Cell Proliferation Assay (MTS Assay); type: cell-based, human; details: 24 μM, compared with 5-FU nanoemulsion
Experimental: The in vitro activity of the 5-FU nanoemulsion was measured against three cancer cell lines (CCL-221, Malme-3M, and CCL-2) using a Cell Proliferation Assay (MTS Assay). The MTS Assay uses a tetrazolium compound (MTS) and an electron coupling reagent (PES) was purchased from Fisher Scientific (Pittsburgh, Pa.). The tetrazolium compound (MTS) can be bioreduced into a colored formazan product by dehydrogenase enzymes in metabolic cells. Formazan is a water-soluble compound and can be dissolved in the culture medium, the quantity of formazan product as measured by the absorbance at 490 nm was directly proportional to the number of living cells in culture.
After incubation for 5 hours, the cells were attached to the bottom of the well and the diluted nanoemulsions were then added and incubated for 48 hours. Subsequently, the media were removed by aspiration and 100 microliter of fresh phenol free cell culture media was pipetted followed by adding 20 microliter of MTS reagent into each well. The plate was incubated for 2 hours at 37 degrees C. in a humidified, 5% CO2 atmosphere and the 96-well plate reader was used to measure the absorbance at 490 nm. The 5-FU nanoemulsions prepared in this study had 20 nm average particle size.

[4] = Particle size by dynamic laser light scattering (Malvern Zetasizer-S); type: physicochemical
Experimental: Unless otherwise indicated, “average particle size” refers to the z-average particle or droplet diameter measured by dynamic laser light scattering, also called Photon correlation spectroscopy (e.g., using the Malvern Zetasizer-S instrument, Malvern Instruments Inc., Southborough Mass.). Unless otherwise indicated, the z-average particle sizes were determined using the Malvern Zetasizer-S instrument with a 4 mW He—Ne laser operating at a wavelength of 633 nm and an avalanche photodiode detector (APD). The z-average diameter is the mean hydrodynamic diameter and the polydispersity index is an estimate of the width of the distribution. Both z-average diameter and polydispersity index (“PDI”) are calculated according to the International Standard on dynamic light scattering, ISO13321.
(§1) Particle sizes of all the formulations indicated in the Examples below were measured by dynamic laser light scattering, also called Photon correlation spectroscopy, using the Malvern Zetasizer-S instrument (Malvern Instruments Inc., Southborough Mass.). […] The particle diffusion (translational diffusion) due to Brownian motion was measured in the instrument and related to the size of the parameter. The mean hydrodynamic diameter (DH) was calculated from the Strokes-Einstein equation. The range of particle sizes which can be measured by the Zetasizer is from 0.6 to 6000 nm.

PL-45 cells = experiment: Paclitaxel growth inhibition, 48 hours; type: cell-based, human; details: PL-45, after 48 hours of treatment
Experimental: FIG. 16C is a graph showing dose-dependant anti cancer activity of paclitaxel in DMSO and paclitaxel in a nanoemulsion made up of rice bran oil and Solutol® HS15 against PL-45 cells after 48 hours of treatment. The graphs indicate a 44% and 40% growth inhibition when treated with paclitaxel in DMSO and paclitaxel in nanoemulsion respectively. […] The error bars represent the standard error of mean for experiments done in duplicates.

CCL-221 cells = experiment: Paclitaxel growth inhibition, 48 hours; type: cell-based, human; details: CCl-221, after 48 hours of treatment
From the text: (§2) The graphs indicate a 60% and 52% growth inhibition when treated with paclitaxel in DMSO and paclitaxel in nanoemulsion respectively. […] The error bars represent the standard error of mean for experiments done in duplicates.

P10.05 cells = experiment: Paclitaxel growth inhibition, 48 hours; type: cell-based, human; details: P10.05, after 48 hours of treatment
From the text: as §2

[5] = Stability of Coumarin preparations over several days stored at room temperature (size, PDI); type: physicochemical; details: for Size: in nm (unit assumed)
From the text: The fluorescence intensity of a Coumarin 6 nanoemulsion can be increased by adding a polysaccharide polymer such as dextran to the SANE formulation. As described in Example 2, the fluorescent dye Coumarin 6 SANE composition can optionally comprise dextran to increase fluorescence intensity of the SANE dye composition. Example 2 describes preparation of Coumarin 6 SANE dye formulations with and without the addition of the polymer dextran. Example 2 also describes measured particle size, stability and fluorescence intensity determined in samples of (a) DMSO coumarin 6 preparation, (b) nanoemulsion of coumarin 6 preparation without dextran, and (c) nanoemulsion of coumarin 6 with dextran.
As shown by the data in Table 2 is that over a 3 day period, these SANE preparations of Coumarin 6 were stable (determined by particle size changes) at room temperature for at least 3 days compared to the DMSO coumarin 6 preparation.
as §1, with “Mass.). Each sample was diluted immediately before measurement with distilled water to avoid multiple light scattering effects.” for “Mass.).”

Compound: COc1cc(/C=C/C(=O)CC(=O)/C=C/c2ccc(O)c(OC)c2)ccc1O [curcumin in DMSO, (1E,6E)-1,7-bis(4-hydroxy-3-methoxyphenyl)-1,6-heptadiene-3,5-dione]
- inhibition of melanoma cancer cell proliferation ([1]; 0.03 micromolar): efficacy against the melanoma cancer cells is lost
- inhibition of melanoma cancer cell proliferation ([1]; 30 micromolar): inhibited melanoma cancer cell proliferation

Compound: COc1cc(/C=C/C(=O)CC(=O)/C=C/c2ccc(O)c(OC)c2)ccc1O [curcumin in water, (1E,6E)-1,7-bis(4-hydroxy-3-methoxyphenyl)-1,6-heptadiene-3,5-dione]
- zeta wall potential [2]: −2.53

Compound: O=c1[nH]cc(F)c(=O)[nH]1 [non-encapsulation 5-FU, 5-fluorouracil]
- inhibition of cell proliferation [3]: not as effective

Compound: CC(=O)O[C@H]1C(=O)[C@@]2(C)[C@H]([C@H](OC(=O)c3ccccc3)[C@]3(O)C[C@H](OC(=O)[C@H](O)[C@@H](NC(=O)c4ccccc4)c4ccccc4)C(C)=C1C3(C)C)[C@]1(OC(C)=O)CO[C@@H]1C[C@@H]2O [paclitaxel in DMSO, paclitaxel]
- average particle (droplet) size, Z-average [4]: ≥ 1,000 nm
- growth inhibition (PL-45 cells): 44%
- growth inhibition (CCL-221 cells): 60%
- growth inhibition (P10.05 cells): 60%

Compound: Coumarin 6 [DMSO COUMARIN]
- PDI ([5]; 0 hrs): 0.457
- Size ([5]; 0 hrs): 1373
- PDI ([5]; 72 hrs): 0.857
- Size ([5]; 72 hrs): 1373
- PDI ([5]; 96 hrs): 0.857
- Size ([5]; 96 hrs): 2142
- PDI ([5]; 120 hrs): 0.857
- Size ([5]; 120 hrs): 6000
- PDI ([5]; 144 hrs): 0.857
- Size ([5]; 144 hrs): 6000
- PDI ([5]; 240 hrs): 0.857
- Size ([5]; 240 hrs): 6000
